Data published in patent publication US5686486A, “4-hydroxy-benzopyran-2-ones and 4-hydroxy-cycloalkyl[b]pyran-2-ones useful to treat retroviral infections” (priority 1995, dated 1997).

Key:
HIV-1 protease [1] = molecular target: T1, HIV-1 protease (Human immunodeficiency virus type 1 group M subtype B, UniProt P04585); assay: biochemical; details: for inhibition at 0.123 µM: read-out: HIV-1 Protease % Inhib, dose 0.123 uM; for inhibition at 0.37 µM: read-out: HIV-1 Protease % Inhib, dose 0.370 uM; for inhibition at 1.1 µM: read-out: HIV-1 Protease % Inhib, dose 1.100 uM; for inhibition at 3.3 µM: read-out: HIV-1 Protease % Inhib, dose 3.300 uM; for inhibition at 10 µM: read-out: HIV-1 Protease % Inhib, dose 10.000 uM; for inhibition at 30 µM: read-out: HIV-1 Protease % Inhib, dose 30.000 uM
In short: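 Percent inhibition derived from fluorescent cleavage product separated by filtration after streptavidin-bead capture of intact biotin/FITC substrate. Reaction: enzyme (10 μl, 0.1 μM stock) with substrate (20 μl, 0.2 μM stock) and compound, 1 h at room temperature in dark, pH 5.5 acetate buffer with 1.0 M NaCl and 0.05% NP-40.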

HIV-1 protease [2] = molecular target: T1, HIV-1 protease; assay: biochemical; details: read-out: HIV-1 FITC KI
In short: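 Enzyme (40 nM stock) and substrate (200 μM stock) incubated with inhibitor, 24–48 two-fold serial concentrations, for 90 min at room temperature, then quenched with avidin beads. Nonlinear least-squares analysis gives Ki; a known-Ki inhibitor validates each run.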

| SMILES | inhibition at 0.123 µM (HIV-1 protease [1]) [%] | inhibition at 0.37 µM (HIV-1 protease [1]) [%] | inhibition at 1.1 µM (HIV-1 protease [1]) [%] | inhibition at 3.3 µM (HIV-1 protease [1]) [%] | inhibition at 10 µM (HIV-1 protease [1]) [%] | inhibition at 30 µM (HIV-1 protease [1]) [%] | Ki (HIV-1 protease [2]) [nM] |
| --- | --- | --- | --- | --- | --- | --- | --- |
| CC(C)CC1CCCCc2c1oc(=O)c(C(c1ccccc1)C1CC1)c2O (centres unmarked) [Example 183, 3-(Cyclopropylphenylmethyl)-6,7,8,9-tetrahydro4-hydroxy-9-(2-methylpropyl)-cyclohepta[b]pyran-2(5H)-one] | 20.9 | 56.5 | 85.5 | 97.3 | 95.8 | 89.7 | 13 |
| O=c1oc2c(c(O)c1C(c1cccc(NS(=O)(=O)c3cccc(S(=O)(=O)N4CCOCC4)c3)c1)C1CC1)CCCCCC2 (centres unmarked) [Example 411, N-[3-[Cyclopropyl(5,6,7,8,9,10-hexahydro-4-hydroxy-2-oxo-2H-cycloocta[b]pyran-3-yl)-methyl]phenyl]-(3-N-morpholinebenzenesulfonyl)benzenesulfonamide] | 71.1 | 79.4 | 98.5 | 104 | 107 | 106 | 2.5 |
| CC(C)(C)c1ccc(S(=O)(=O)Nc2cccc(C(c3c(O)c4c(oc3=O)CCCCCC4)C3CC3)c2)cc1 (centres unmarked) [Example 265, N-[3-[Cyclopropyl(5,6,7,8,9,10-hexahydro-4hydroxy-2-oxo-2H-cycloocta[b]pyran-3-yl)methyl]phenyl]-4-(1,1-dimethylethyl)-benzenesulfonamide] | 25.3 | 54.8 | 76.9 | 86.1 | 100 | 98.3 | 31.5 |
| O=c1oc2c(c(O)c1C(c1cccc(NS(=O)(=O)c3cc(C(F)(F)F)cc(C(F)(F)F)c3)c1)C1CC1)CCCCCC2 (centres unmarked) [Example 332, N-[3-[Cyclopropyl(5,6,7,8,9,10-hexahydro-4-hydroxy-2-oxo-2H-cycloocta[b]pyran-3-yl)methyl]phenyl]-3,5-bis(trifluoromethyl)-benzenesulfonamide] | 23.1 | 39.3 | 71.5 | 94 | 109 | 115 | 47 |
| O=c1oc2c(c(O)c1C(c1ccccc1)C1CC1)CCCCC2CC1CCCO1 (centres unmarked) [Example 189, 3-(Cyclopropylphenylmethyl)-6,7,8,9-tetrahydro4-hydroxy-9-[(tetrahydro-2-furanyl)methyl]-cyclohepta[b]pyran-2(5H)-one] | 15.7 | 37.6 | 69.8 | 89.3 | 98.1 | 99.3 | 36 |
| O=c1oc2c(c(O)c1C(c1ccccc1)C1CC1)CCCCCC2CC1CCCCO1 (centres unmarked) [Example 130, 3-(Cyclopropyl-phenyl-methyl)-4-hydroxy-10-(tetrahydro-pyran-2-ylmethyl)-5,6,7,8,9,10-hexahydro-cycloocta[b]pyran-2-one] | – | 14.7 | 54 | 88.6 | 104 | 112 | 119 |
| O=C(CO)Nc1cccc(S(=O)(=O)Nc2cccc(C(c3c(O)c4c(oc3=O)CCCCCC4)C3CC3)c2)c1 (centres unmarked) [Example 409, 3-(Hydroxyacetylamino)-N-[3-[cyclopropyl(5,6,7,8,9,10-hexahydro4-hydroxy-2-oxo-2H-cycloocta[b]pyran-3-yl)methyl]phenyl]-benzenesulfonamide] | 65.1 | 90.5 | 102 | 103 | 101 | 108 | 3.3 |
| O=c1oc2c(c(O)c1[C@@H](c1cccc(NS(=O)(=O)c3cccc4cccnc34)c1)C1CC1)CCCCCC2 [Example 260, (+)-N-[3-[Cyclopropyl(5,6,7,8,9, 10-hexahydro-4-hydroxy-2-oxo-2H-cycloocta[b]pyran-3-yl)methyl]phenyl]-8-quinolinesulfonamide] | 73.8 | 91.7 | 99 | 106 | 102 | 96.9 | 0.93 |
| CCCCC1CCCCCc2c1oc(=O)c(C(c1ccccc1)C1CC1)c2O (centres unmarked) [Example 129, 10-Butyl-3-(cyclopropyl-phenyl-methyl)4-hydroxy-5,6,7,8,9,10-hexahydro-cycloocta[b]pyran-2-one] | 23.2 | 67.8 | 96.5 | 106 | 117 | 120 | 31 |
